For one test, the system named is MDA-MB-231. The test can be described thus: Cytotoxicity against human MDA-MB-231 cells after 48 hrs by sulforhodamine B assay. The settings on record: MDA-MB-231, 48 h. It is filed as functional. For orientation: Sulforhodamine B stains cellular protein and so reports cell mass.
The next test concerns HT-29. As to the kind of experiment: Cytotoxicity against human HT-29 cells after 48 hrs by sulforhodamine B assay. It is filed as functional. The settings on record: HT-29, 48 h.
For the next test, the system named is A549. The test can be described thus: Cytotoxicity against human A549 cells after 48 hrs by sulforhodamine B assay. The settings on record: A549, 48 h. It is filed as functional.
For test [1], the target named is T1, Proteinase-activated receptor 1 (Homo sapiens) (UniProt P25116).
T1 sequence (whole entry): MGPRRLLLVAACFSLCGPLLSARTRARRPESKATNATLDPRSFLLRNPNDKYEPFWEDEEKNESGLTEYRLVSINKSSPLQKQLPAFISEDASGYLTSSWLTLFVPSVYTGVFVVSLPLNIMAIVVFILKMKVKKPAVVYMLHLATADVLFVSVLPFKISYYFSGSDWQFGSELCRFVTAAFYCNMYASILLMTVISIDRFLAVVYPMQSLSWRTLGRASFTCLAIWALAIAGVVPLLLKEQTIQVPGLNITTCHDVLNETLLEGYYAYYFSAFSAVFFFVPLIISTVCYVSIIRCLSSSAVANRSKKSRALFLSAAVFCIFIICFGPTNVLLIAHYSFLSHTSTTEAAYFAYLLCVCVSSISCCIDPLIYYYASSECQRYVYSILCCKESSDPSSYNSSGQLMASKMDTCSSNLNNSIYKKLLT
The test can be described thus: Antagonist activity at PAR1 in human platelet rich plasma assessed as inhibition of SFLLRN-induced platelet aggregation at 150 uM after 5 mins by aggregometric analysis relative to control.

The source made the active and inactive calls. No cut-off for these calls is given here.

As a reminder, the GI50 is the concentration at which growth is held to half of that of the control. High values mean lower sensitivity of the cells, low ones greater sensitivity of the cells. In the case of `COc1cccc2c1C(=O)c1c(O)c3c(c(O)c1C2=O)C[C@@](O)(C(=O)CO)C[C@@H]3O[C@H]1C[C@H](N)[C@H](O)[C@H](C)O1` [DOXORUBICIN], the GI50 in the test on MDA-MB-231 came out at 0.09 µM; with HT-29, 0.1 µM; in the test on A549, 0.07 µM.

In the case of `Cc1c(C)c(S(=O)(=O)/N=C(/N)NCCC[C@H]2C(=O)NC[C@H]([C@H](Cc3ccccc3)NC(=O)OC(C)(C)C)N2Cc2ccccc2)c(C)c2c1OC(C)(C)C2`, the values for the GI50 in the test on MDA-MB-231, in the test on HT-29 and in the test with A549 were 6.83 µM, 5.26 µM and 1.24 µM, respectively.

Usually inhibition stands for the share of the control response that was lost under treatment. For `CC(C)(C)OC(=O)NCCCC[C@H]1C(=O)N(Cc2ccccc2)C[C@@H]([C@H](Cc2cn(C(=O)OC(C)(C)C)c3ccccc23)NC(=O)OC(C)(C)C)N1Cc1ccccc1`, the results for the 50% growth inhibitory concentration (GI50) in the test on MDA-MB-231, with HT-29 and in the test on A549 were 1.48 µM, 3.83 µM and over 10 µM, respectively. Also, the inhibition result in test [1] is “inactive”.

Consider `CC(C)(C)OC(=O)CN1[C@@H]([C@H](Cc2cn(C(=O)OC(C)(C)C)c3ccccc23)NC(=O)OC(C)(C)C)CNC(=O)[C@@H]1CCCCNC(=O)OC(C)(C)C`, for which the GI50 in the test with MDA-MB-231 turned out to be 2.29 µM; with HT-29, 3.09 µM; in the test on A549, 4.57 µM. Also, the inhibition entry in test [1] is “inactive”.

For the compound `CC(C)(C)OC(=O)NCCCC[C@H]1C(=O)NC[C@H]([C@H](Cc2cn(C(=O)OC(C)(C)C)c3ccccc23)NC(=O)OC(C)(C)C)N1Cc1ccccc1`, the GI50 was 2.92 µM in the test on MDA-MB-231, 4.58 µM in the test with HT-29 and 4.86 µM in the test with A549. Also, the inhibition entry in test [1] is “inactive”.

Regarding `Cc1c(C)c(S(=O)(=O)/N=C(/N)NCCC[C@H]2C(=O)N(Cc3ccccc3)C[C@@H]([C@H](Cc3cn(C(=O)OC(C)(C)C)c4ccccc34)NC(=O)OC(C)(C)C)N2Cc2ccccc2)c(C)c2c1OC(C)(C)C2`, the inhibition result in test [1] is “Active”.

On to `CC(C)(C)OC(=O)CN1[C@@H]([C@H](Cc2cn(C(=O)OC(C)(C)C)c3ccccc23)NC(=O)OC(C)(C)C)CN(Cc2ccccc2)C(=O)[C@@H]1CCCCNC(=O)OC(C)(C)C`, for which the GI50 in the test on MDA-MB-231 is 1.56 µM; in the test with HT-29, 4.44 µM; with A549 it was over 10 µM. For the same compound, in test [1], the inhibition result was “inactive”.

On to `CC(C)(C)OC(=O)CN1[C@@H](CCCCNC(=O)OC(C)(C)C)C(=O)N(Cc2ccccc2)C[C@H]1[C@H](Cc1cn(C(=O)OC(C)(C)C)c2ccccc12)NC(=O)OC(C)(C)C`, for which, in test [1], the inhibition entry was “inactive”.

Regarding `Cc1c(C)c(S(=O)(=O)/N=C(\N)NCCC[C@H]2C(=O)N(Cc3ccccc3)C[C@@H]([C@H](Cc3ccccc3)NC(=O)OC(C)(C)C)N2Cc2ccccc2)c(C)c2c1OC(C)(C)C2`, the inhibition result in test [1] was “Active”.

For the compound `CC(C)(C)OC(=O)CN1[C@@H](CCCCNC(=O)OC(C)(C)C)C(=O)NC[C@H]1[C@H](Cc1cn(C(=O)OC(C)(C)C)c2ccccc12)NC(=O)OC(C)(C)C`, the GI50 in the test with MDA-MB-231 is 6.72 µM; in the test with HT-29 it was 5.78 µM; in the test with A549, 8.6 µM. Also, the inhibition result in test [1] was “inactive”.

For the compound `Cc1c(C)c(S(=O)(=O)/N=C(/N)NCCC[C@H]2C(=O)N(Cc3ccccc3)C[C@H](CCc3ccccc3)N2Cc2ccccc2)c(C)c2c1OC(C)(C)C2`, in test [1], the inhibition result is “Active”.

Regarding `CC(C)(C)OC(=O)NCCCC[C@@H]1N[C@@H]([C@H](Cc2cn(C(=O)OC(C)(C)C)c3ccccc23)NC(=O)OC(C)(C)C)CNC1=O`, the values for the GI50 with MDA-MB-231, in the test on HT-29 and in the test on A549 were 5.56 µM, 5.43 µM and over 10 µM, respectively. Also, the inhibition result in test [1] is “inactive”.

Turning to `CC(C)(C)OC(=O)NCCCC[C@H]1C(=O)N(Cc2ccccc2)C[C@H]([C@H](Cc2cn(C(=O)OC(C)(C)C)c3ccccc23)NC(=O)OC(C)(C)C)N1Cc1ccccc1`, the figures for the GI50 with MDA-MB-231, in the test on HT-29 and in the test on A549 were 3.33 µM, over 10 µM and over 10 µM, respectively. In test [1], the inhibition result was “inactive”.

For `Cc1c(C)c(S(=O)(=O)/N=C(\N)NCCC[C@H]2C(=O)N(Cc3ccccc3)C[C@H]([C@H](Cc3ccccc3)NC(=O)NCc3ccccc3)N2Cc2ccccc2)c(C)c2c1OC(C)(C)C2`, the inhibition result in test [1] is “Active”.

With `Cc1c(C)c(S(=O)(=O)/N=C(/N)NCCC[C@H]2C(=O)N(Cc3ccccc3)C[C@@H]([C@H](Cc3cn(C(=O)OC(C)(C)C)c4ccccc34)NC(=O)OC(C)(C)C)N2CC(=O)OC(C)(C)C)c(C)c2c1OC(C)(C)C2`, the inhibition entry in test [1] was “Active”.

`Cc1c(C)c(S(=O)(=O)/N=C(/N)NCCC[C@H]2C(=O)N(Cc3ccccc3)C[C@H]([C@H](Cc3cn(C(=O)OC(C)(C)C)c4ccccc34)NC(=O)OC(C)(C)C)N2Cc2ccccc2)c(C)c2c1OC(C)(C)C2`: the inhibition result in test [1] is “Active”.

Regarding `Cc1c(C)c(S(=O)(=O)/N=C(\N)NCCC[C@H]2C(=O)N(Cc3ccccc3)C[C@H]([C@H](Cc3ccccc3)NC(=O)OC(C)(C)C)N2CC(=O)OC(C)(C)C)c(C)c2c1OC(C)(C)C2`, in test [1], the inhibition entry was “Active”.

For the compound `Cc1c(C)c(S(=O)(=O)/N=C(/N)NCCC[C@H]2C(=O)N(Cc3ccccc3)C[C@@H](CCc3cn(C(=O)OC(C)(C)C)c4ccccc34)N2Cc2ccccc2)c(C)c2c1OC(C)(C)C2`, the inhibition result in test [1] was “Active”.

As to `Cc1c(C)c(S(=O)(=O)/N=C(\N)NCCC[C@H]2C(=O)N(Cc3ccccc3)C[C@@H]([C@H](Cc3c[nH]c4ccccc34)NC(=O)NCc3ccccc3)N2Cc2ccccc2)c(C)c2c1OC(C)(C)C2`, the inhibition entry in test [1] was “Active”.

For the compound `Cc1c(C)c(S(=O)(=O)/N=C(\N)NCCC[C@H]2C(=O)N(Cc3ccccc3)C[C@@H]([C@H](Cc3ccccc3)NC(=O)NCc3ccccc3)N2Cc2ccccc2)c(C)c2c1OC(C)(C)C2`, the inhibition in test [1] stood at 57%.

In the case of `CC(C)(C)OC(=O)NCCCC[C@H]1C(=O)NC[C@@H]([C@H](Cc2cn(C(=O)OC(C)(C)C)c3ccccc23)NC(=O)OC(C)(C)C)N1Cc1ccccc1`, the GI50 in the test with MDA-MB-231 was 4.58 µM; in the test on HT-29, 4.45 µM; in the test on A549, 5.56 µM. Besides, the inhibition entry in test [1] was “inactive”.

As to `Cc1c(C)c(S(=O)(=O)/N=C(/N)NCCC[C@H]2C(=O)NC[C@@H]([C@H](Cc3ccccc3)NC(=O)OC(C)(C)C)N2Cc2ccccc2)c(C)c2c1OC(C)(C)C2`, the concentration for 50% growth inhibition (GI50) came to 6.04 µM in the test with MDA-MB-231, 3.29 µM with HT-29 and 5.39 µM in the test on A549.

As to `Cc1c(C)c(S(=O)(=O)/N=C(/N)NCCC[C@H]2C(=O)N(Cc3ccccc3)C[C@H](CCc3cn(C(=O)OC(C)(C)C)c4ccccc34)N2Cc2ccccc2)c(C)c2c1OC(C)(C)C2`, the inhibition entry in test [1] was “Active”.

Take `Cc1c(C)c(S(=O)(=O)/N=C(/N)NCCC[C@H]2C(=O)NC[C@H]([C@H](Cc3cn(C(=O)OC(C)(C)C)c4ccccc34)NC(=O)OC(C)(C)C)N2CC(=O)OC(C)(C)C)c(C)c2c1OC(C)(C)C2`: the GI50 was found to be 4.54 µM with MDA-MB-231, 4.98 µM in the test with HT-29 and 3.25 µM with A549.

On to `Cc1c(C)c(S(=O)(=O)/N=C(/N)NCCC[C@H]2C(=O)NC[C@@H]([C@H](Cc3cn(C(=O)OC(C)(C)C)c4ccccc34)NC(=O)OC(C)(C)C)N2Cc2ccccc2)c(C)c2c1OC(C)(C)C2`, for which the GI50 with MDA-MB-231 was 4.55 µM; with HT-29 it was 3.78 µM; in the test on A549, 5.55 µM.

Turning to `Cc1c(C)c(S(=O)(=O)/N=C(/N)NCCC[C@H]2C(=O)NC[C@H]([C@H](Cc3cn(C(=O)OC(C)(C)C)c4ccccc34)NC(=O)OC(C)(C)C)N2Cc2ccccc2)c(C)c2c1OC(C)(C)C2`, the GI50 in the test with MDA-MB-231 turned out to be 4.44 µM; with HT-29, 3.78 µM; in the test on A549, 4.89 µM.

For the compound `CC(C)(C)OC(=O)NCCCC[C@@H]1N[C@H]([C@H](Cc2cn(C(=O)OC(C)(C)C)c3ccccc23)NC(=O)OC(C)(C)C)CNC1=O`, the GI50 worked out at 5.31 µM in the test on MDA-MB-231, 5.43 µM in the test on HT-29 and 9.75 µM in the test with A549. The inhibition entry in test [1] is “inactive”.

As to `Cc1c(C)c(S(=O)(=O)/N=C(/N)NCCC[C@H]2C(=O)N(Cc3ccccc3)C[C@H]([C@H](Cc3cn(C(=O)OC(C)(C)C)c4ccccc34)NC(=O)OC(C)(C)C)N2CC(=O)OC(C)(C)C)c(C)c2c1OC(C)(C)C2`, in test [1], the inhibition result was “Active”.

In the case of `Cc1c(C)c(S(=O)(=O)/N=C(\N)NCCC[C@H]2C(=O)N(Cc3ccccc3)C[C@@H]([C@H](Cc3ccccc3)NC(=O)OC(C)(C)C)N2CC(=O)OC(C)(C)C)c(C)c2c1OC(C)(C)C2`, in test [1], the inhibition entry was “Active”.

As for `Cc1c(C)c(S(=O)(=O)/N=C(\N)NCCC[C@H]2C(=O)N(Cc3ccccc3)C[C@H]([C@H](Cc3c[nH]c4ccccc34)NC(=O)NCc3ccccc3)N2Cc2ccccc2)c(C)c2c1OC(C)(C)C2`, in test [1], the inhibition entry was “Active”.

Take `Cc1c(C)c(S(=O)(=O)/N=C(/N)NCCC[C@H]2C(=O)NC[C@@H]([C@H](Cc3cn(C(=O)OC(C)(C)C)c4ccccc34)NC(=O)OC(C)(C)C)N2CC(=O)OC(C)(C)C)c(C)c2c1OC(C)(C)C2`: the GI50 in the test on MDA-MB-231 was 4.87 µM; in the test on HT-29, 2.92 µM; in the test with A549, 7.68 µM.

On to `Cc1c(C)c(S(=O)(=O)/N=C(\N)NCCC[C@H]2C(=O)N(Cc3ccccc3)C[C@H]([C@H](Cc3ccccc3)NC(=O)OC(C)(C)C)N2Cc2ccccc2)c(C)c2c1OC(C)(C)C2`, for which the inhibition result in test [1] is “Active”.

As for `Cc1c(C)c(S(=O)(=O)/N=C(/N)NCCC[C@H]2C(=O)N(Cc3ccccc3)C[C@@H](CCc3ccccc3)N2Cc2ccccc2)c(C)c2c1OC(C)(C)C2`, the inhibition entry in test [1] is “Active”.

The record behind these values is ChEMBL document CHEMBL3085629, “Highly functionalized 2-oxopiperazine-based peptidomimetics: an approach to PAR1 antagonists” (2013).
